The record followed here is ChEMBL document CHEMBL2202965 (Bioorg Med Chem Lett, 2012).

Assay [1] addresses Kappa-type opioid receptor (Cavia porcellus, UniProt P41144). The assay is described as follows: Displacement of [3H]U69,593 from kappa opioid receptor in guinea pig brain membrane after 2 hrs. It is filed as cell membranes. On the technique in general: Displacement assays read how much labelled ligand stays bound in the presence of the test substance.
The nature of assay [2]: Agonist activity at delta opioid receptor in guinea pig ileum. The note with it: Cavia porcellus.
Assay [3] deals with Delta-type opioid receptor (Homo sapiens) (UniProt P41143). The assay is described as follows: Antagonist activity at human delta opioid receptor expressed in HEK293 cells by [35S]GTP binding assay. It is filed as functional, cell-based.
Chain of Delta-type opioid receptor (Homo sapiens) (P41143 whole entry): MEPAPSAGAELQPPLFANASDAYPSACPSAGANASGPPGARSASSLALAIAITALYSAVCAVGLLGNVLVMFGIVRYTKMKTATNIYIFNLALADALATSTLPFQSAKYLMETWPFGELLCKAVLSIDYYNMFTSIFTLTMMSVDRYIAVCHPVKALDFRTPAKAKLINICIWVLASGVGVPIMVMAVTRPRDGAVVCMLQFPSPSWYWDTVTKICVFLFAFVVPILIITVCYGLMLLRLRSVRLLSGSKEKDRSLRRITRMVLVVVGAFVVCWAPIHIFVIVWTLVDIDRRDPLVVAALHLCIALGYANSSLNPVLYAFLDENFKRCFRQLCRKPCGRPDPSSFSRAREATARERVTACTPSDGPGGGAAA
Assay [4] addresses Delta-type opioid receptor (Rattus norvegicus) (UniProt P33533). The assay is described as follows: Displacement of [3H]DSLET from delta opioid receptor in rat brain membrane after 2 hrs relative to DPDPE. It is filed as cell membranes.
The species entered for assay [5] is Cavia porcellus. The assay is described as follows: Agonist activity at delta opioid receptor in guinea pig ileum at 10 uM. The format is functional, tissue-based.
The target of assay [6] is Delta-type opioid receptor (Mus musculus) (UniProt P32300). The assay is described as follows: Agonist activity at delta opioid receptor in mouse vas deferens relative to DPDPE. The format is functional, tissue-based.
Chain of Delta-type opioid receptor (Mus musculus) (P32300 whole entry): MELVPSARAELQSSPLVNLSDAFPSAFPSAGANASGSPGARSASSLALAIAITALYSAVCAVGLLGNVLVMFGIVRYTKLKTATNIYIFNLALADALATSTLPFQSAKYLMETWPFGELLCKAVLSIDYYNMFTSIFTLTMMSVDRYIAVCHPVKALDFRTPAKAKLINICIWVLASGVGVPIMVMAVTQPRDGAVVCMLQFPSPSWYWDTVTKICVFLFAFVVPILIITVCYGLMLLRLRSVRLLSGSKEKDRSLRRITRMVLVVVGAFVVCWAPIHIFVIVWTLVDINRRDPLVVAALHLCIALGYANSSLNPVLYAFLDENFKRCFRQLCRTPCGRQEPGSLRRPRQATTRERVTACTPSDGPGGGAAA
The species entered for assay [7] is Cavia porcellus. In words: (§1) Partial agonist activity at delta opioid receptor in guinea pig ileum. It is filed as functional.
Assay [8] can be described thus: as §1. The note with it: Cavia porcellus. The format is functional.
For assay [9], the target named is Delta-type opioid receptor (Homo sapiens) (UniProt P41143). In words: Partial agonist activity at human delta opioid receptor expressed in HEK293 cells by [35S]GTP binding assay. The format is functional, cell-based.
Assay [10] has the same target. In words: Agonist activity at human delta opioid receptor expressed in HEK293 cells by [35S]GTP binding assay relative to DPDPE. The format is functional, cell-based.

For orientation: Ki means the dissociation constant of the complex between target and ligand, obtained from inhibition or displacement. A higher Ki goes with lower affinity. The term IC50 denotes the midpoint of a concentration-inhibition curve.

The source made the active and inactive calls. The rule behind the calls is not given here. Non-standard residues stand in square brackets, D forms with d. Residues, ends and D or L forms follow the SMILES beside them. ξ: configuration not given here. *: point of attachment. NH(2-(1-naphthyl)ethyl) = c1ccc2c(CCN*)cccc2c1; Phe(4-CONH2) = NC(=O)c1ccc(C[C@H](N)C(=O)O)cc1; Phe(4-COOH) = N[C@@H](Cc1ccc(C(=O)O)cc1)C(=O)O; Tryptamide = c1ccc2c(CCN*)c[nH]c2c1; Tic = O=C(O)[C@@H]1Cc2ccccc2CN1; X3 = c1ccc(-c2ccc(CCN*)cc2)cc1; X2 = c1cc(C2CCCCC2)ccc1CCN*; ξTic = O=C(O)C1Cc2ccccc2CN1; X1 = c1ccc2cc(CCN*)ccc2c1; NHDecyl = CCCCCCCCCCN*; NHHex = CCCCCCN*

Chain of Kappa-type opioid receptor (P41144 whole entry): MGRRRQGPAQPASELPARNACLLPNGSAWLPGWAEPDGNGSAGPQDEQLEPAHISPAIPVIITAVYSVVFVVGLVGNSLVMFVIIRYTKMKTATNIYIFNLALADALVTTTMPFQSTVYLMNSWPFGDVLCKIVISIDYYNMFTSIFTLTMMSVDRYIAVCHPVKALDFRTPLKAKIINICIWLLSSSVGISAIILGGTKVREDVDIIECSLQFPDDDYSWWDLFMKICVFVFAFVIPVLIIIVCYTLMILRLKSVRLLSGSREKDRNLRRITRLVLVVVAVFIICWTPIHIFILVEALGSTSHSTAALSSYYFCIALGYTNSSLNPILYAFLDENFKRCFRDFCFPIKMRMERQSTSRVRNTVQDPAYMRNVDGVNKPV
Chain of Delta-type opioid receptor (Rattus norvegicus) (P33533 whole entry): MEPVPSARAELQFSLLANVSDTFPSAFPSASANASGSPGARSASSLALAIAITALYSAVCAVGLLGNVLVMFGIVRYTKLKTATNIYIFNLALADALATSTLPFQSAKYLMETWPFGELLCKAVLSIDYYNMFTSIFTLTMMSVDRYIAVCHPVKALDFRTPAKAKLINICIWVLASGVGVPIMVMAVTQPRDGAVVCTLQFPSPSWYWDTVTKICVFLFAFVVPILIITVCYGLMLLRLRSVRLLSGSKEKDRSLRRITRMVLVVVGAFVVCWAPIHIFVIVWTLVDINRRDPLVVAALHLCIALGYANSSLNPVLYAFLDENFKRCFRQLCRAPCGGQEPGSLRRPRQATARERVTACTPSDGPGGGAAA

Consider `N[C@@H](Cc1ccc(O)cc1)C(=O)N1Cc2ccccc2C[C@H]1C(=O)N[C@@H](Cc1ccccc1)C(=O)N[C@@H](Cc1ccccc1)C(=O)O` (H-Y[Tic]FF-OH), for which, in [1], the Ki is greater than 10 µM. The IC50 in [2] was greater than 10 µM. Also, in assay [3], the outcome was Active.

In [1], `NC(=O)c1ccc(C[C@H](N)C(=O)N2Cc3ccccc3C[C@H]2C(=O)N[C@@H](Cc2ccccc2)C(=O)N[C@@H](Cc2ccccc2)C(=O)O)cc1` (H-[Phe(4-CONH2)][Tic]FF-OH) displayed a Ki greater than 10 µM. Further, in assay [3], the result was Active.

Consider `N[C@@H](Cc1ccc(C(=O)NCCc2cccc3ccccc23)cc1)C(=O)N1Cc2ccccc2C[C@H]1C(=O)N[C@@H](Cc1ccccc1)C(=O)N[C@@H](Cc1ccccc1)C(=O)O` (H-[Phe(4-COOH)](NH(2-(1-naphthyl)ethyl))[Tic]FF-OH), for which the fold change (FC) in [4] turned out to be 5; in assay [6] it was 2. Further, the Ki in [1] is greater than 10 µM. The outcome in the assay filed under Cavia porcellus [5] was inactive.

With `CCCCCCCCCCNC(=O)c1ccc(C[C@H](N)C(=O)N2Cc3ccccc3C[C@H]2C(=O)N[C@@H](Cc2ccccc2)C(=O)N[C@@H](Cc2ccccc2)C(=O)O)cc1` (H-[Phe(4-COOH)](NHDecyl)[Tic]FF-OH), the Ki in assay [1] is greater than 10 µM.

Compound `CCCCCCNC(=O)c1ccc(C[C@H](N)C(=O)N2Cc3ccccc3C[C@H]2C(=O)N[C@@H](Cc2ccccc2)C(=O)N[C@@H](Cc2ccccc2)C(=O)O)cc1` (H-[Phe(4-COOH)](NHHex)[Tic]FF-OH) had a Ki in assay [1] greater than 10 µM.

With `N[C@@H](Cc1ccc(C(=O)NCCc2c[nH]c3ccccc23)cc1)C(=O)N1Cc2ccccc2C[C@H]1C(=O)N[C@@H](Cc1ccccc1)C(=O)N[C@@H](Cc1ccccc1)C(=O)O` (H-[Phe(4-COOH)](Tryptamide)[Tic]FF-OH), the Ki in assay [1] is greater than 10 µM. For the same compound, the outcome in the assay listed under Cavia porcellus [7] was Active.

`N[C@@H](Cc1ccc(C(=O)NCCc2ccc3ccccc3c2)cc1)C(=O)N1Cc2ccccc2C[C@H]1C(=O)N[C@@H](Cc1ccccc1)C(=O)N[C@@H](Cc1ccccc1)C(=O)O` (H-[Phe(4-COOH)](X1)[Tic]FF-OH): the fold change (FC) in assay [4] is 5; in [6], 2. For the same compound, the Ki in assay [1] is greater than 10 µM. In the assay filed under Cavia porcellus [7], the outcome was Active.

In [1], `N[C@@H](Cc1ccc(C(=O)NCCc2ccc(C3CCCCC3)cc2)cc1)C(=O)N1Cc2ccccc2C[C@H]1C(=O)N[C@@H](Cc1ccccc1)C(=O)N[C@@H](Cc1ccccc1)C(=O)O` (H-[Phe(4-COOH)](X2)[Tic]FF-OH) [listing 1 of 2 here] displayed a Ki greater than 10 µM.

`N[C@@H](Cc1ccc(C(=O)NCCc2ccc(C3CCCCC3)cc2)cc1)C(=O)N1Cc2ccccc2C[C@H]1C(=O)N[C@@H](Cc1ccccc1)C(=O)N[C@@H](Cc1ccccc1)C(=O)O` (H-[Phe(4-COOH)](X2)[Tic]FF-OH) [listing 2 of 2 here] gave an IC35 in assay [8] of 0.0234 µM.

For `N[C@@H](Cc1ccc(C(=O)NCCc2ccc(-c3ccccc3)cc2)cc1)C(=O)N1Cc2ccccc2CC1C(=O)N[C@@H](Cc1ccccc1)C(=O)N[C@@H](Cc1ccccc1)C(=O)O` (some centres not stated) (H-[Phe(4-COOH)](X3)[ξTic]FF-OH), the Ki in assay [1] was greater than 10 µM. In [9], this compound had an ED50 of 0.000413 µM. In addition, the Ratio in assay [10] was 0.678.
